From patent EP0848706B1, “SUBSTITUTED BENZENE-FUSED HETEROCYCLICS AS NEUROKININ ANTAGONISTS” (SCHERING CORPORATION, priority 1995, dated 1996) come the findings set out here.

The target in test [1] is T1, human NK-1 receptor (Homo sapiens, UniProt P25103).
T1 construct: expressed in transfected cells; host or cells: Chinese Hamster ovary (CHO) cells
The test is described as follows: Neurokinin receptor binding assay, NK-1 ([3H]-Substance P, CHO cell membranes). As to conditions: for Ki: Ki according to Cheng and Prusoff from competition binding curves, read-out: Ki(NK1); for inhibition at 1 µM: read-out: % Inhibition NK1 (1µM dose). The protocol: (§1) Chinese Hamster ovary (CHO) cells transfected with the coding regions for the human neurokinin 1 (NK1) of the human neurokinin 2 (NK2) receptors are grown in Dulbecco's minimal essential medium supplemented with 10% fetal calf serum, 0.1 mM non-essential amino acids, 2 mM glutamine, 100units/ml of penicillin and streptomycin, and 0.8 mg of G418/ml at 37°C in a humidified atmosphere containing 5% CO2.
(§2) Cells are detached from T-175 flasks with a sterile solution containing 5mM EDTA in phosphate buffered saline. Cells are harvested by centrifugation and washed in RPMI media at […] for 5 minutes. The pellet is resuspended inTris-HCl (pH7.4) containing 1 uM phsphoramidon and 4 ug/ml of chymostatin at a cell density of 30 x 10^6 cells/ml. The suspension is then homogenized in a Brinkman Polytron (setting 5) for 30-45 seconds. The homogenate is centrifuged at 800 x g for 5 min at 4°C to collect unbroken cells and nuclei. The supernatant is centrifuged in a Sorvall RC5C at 19,000 rpm ([…]) for 30 min at 4°C. The pellet is resuspended, an aliquot is removed for a protein determination (BCA) and washed again. The resulting pellet is stored at -80°C.
(§3) To assay receptor binding, 50 µl of [^3H]-Substance P (9-Sar, 11-Met) (specific activity 41 Ci/mmol) (Dupont-NEN) (0.8 nM for the NK-1 assay) or [^3H]-Neurokinin A (specific activity 114 Ci/ mmole) (Zenca) (1.0 nM for the NK-2 assay) is added to tubes containing buffer (50 mM Tris-HCl (pH 7.4) with 1 mM MnCl2 and 0.2% Bovine Serum Albumin) and either DMSO or test compound. Binding is initiated by the addition of 100µl of membrane (10-20 µg) containing the human NK-1 or NK-2 receptor in a final volume of 200 µl. After 40 minutes at room temperature, the reaction is stopped by rapid filtration onto Whatman GF/C filters which have been presoaked in 0.3% polyethylenimine. Filters are washed 2 times with 3 ml of 50 mM Tris-HCl (pH7.4). Filters are added to 6 mls of Ready-Safe liquid scintillation cocktail and quantified by liquid scintillation spectrometry in a LKB 1219 RackBeta counter. Non-specific binding is determined by the addition of either 1 µM of CP-99994 (NK-1) or 1µM SR-48968 (NK-2) (both synthesized by the chemistry department of Schering-Plough Research Institute). IC50 values are determined from competition binding curves and Ki values are determined according to Cheng and Prusoff using the experimentally determined value of 0.8 nM for the NK-1 receptor and 2.4 nM for the NK-2 receptor.
(§4) % Inhibition is the difference between the percent of maximum specific binding (MSB) and 100%. The percent of MSB is defined by the following equation, wherein "dpm" is disintegrations per minute: % MSB =((dpm of unknown) - (dpm of nonspecific binding))/((dpm of total binding) - (dpm of nonspecific binding))X 100 [formula]

For test [2], the target named is T2, human NK-2 receptor (Homo sapiens, UniProt P21452).
T2 construct: expressed in transfected cells; host or cells: Chinese Hamster ovary (CHO) cells
T2 sequence (P21452 1-398): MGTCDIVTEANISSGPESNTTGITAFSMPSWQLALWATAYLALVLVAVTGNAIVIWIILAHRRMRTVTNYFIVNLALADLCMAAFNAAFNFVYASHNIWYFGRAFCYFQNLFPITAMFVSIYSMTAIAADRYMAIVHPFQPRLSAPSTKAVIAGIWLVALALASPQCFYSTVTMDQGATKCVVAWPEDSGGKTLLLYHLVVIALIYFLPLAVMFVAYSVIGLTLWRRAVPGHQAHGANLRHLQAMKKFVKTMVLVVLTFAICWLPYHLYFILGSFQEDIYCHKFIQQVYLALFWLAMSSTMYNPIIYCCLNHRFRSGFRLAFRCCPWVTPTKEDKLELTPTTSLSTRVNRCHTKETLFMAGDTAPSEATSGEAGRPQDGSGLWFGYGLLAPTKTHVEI
Nature of the test: Neurokinin receptor binding assay, NK-2 ([3H]-Neurokinin A, CHO cell membranes). Conditions: for Ki: Ki according to Cheng and Prusoff from competition binding curves, read-out: Ki (NK2); for inhibition at 1 µM: read-out: % Inhibition NK2 (1µM dose). The protocol:
as §1, §2, §3, §4

Test [3] addresses T3, NK3 (Homo sapiens, UniProt P29371).
T3 sequence (P29371 1-465): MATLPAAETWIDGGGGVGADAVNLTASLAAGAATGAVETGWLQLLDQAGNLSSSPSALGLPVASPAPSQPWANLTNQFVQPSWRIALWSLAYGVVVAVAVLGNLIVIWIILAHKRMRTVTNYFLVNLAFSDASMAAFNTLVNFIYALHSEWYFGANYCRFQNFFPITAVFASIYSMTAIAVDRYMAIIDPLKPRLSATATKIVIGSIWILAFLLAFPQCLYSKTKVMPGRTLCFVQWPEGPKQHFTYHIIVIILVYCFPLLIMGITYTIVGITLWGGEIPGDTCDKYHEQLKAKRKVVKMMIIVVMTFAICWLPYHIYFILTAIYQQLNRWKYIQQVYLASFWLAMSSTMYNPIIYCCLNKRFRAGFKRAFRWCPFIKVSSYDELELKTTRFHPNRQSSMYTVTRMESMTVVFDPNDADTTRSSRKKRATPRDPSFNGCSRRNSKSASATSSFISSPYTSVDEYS
The test is described as follows: NK3 activity, procedure similar to the literature (Molecular Pharmacol., 48 (1995), p. 711-716). Format: binding. The protocol:
NK3 activity is determined by following a procedure similar to that described in the literature, e.g., Molecular Pharmacol., 48 (1995), p. 711-716.

The mark [4] stands for this setting: 1µM dose, % inhibition = 100% minus percent of maximum specific binding.

Like-named read-outs stand apart in the source and are kept apart here.

T1 sequence (P25103 whole entry): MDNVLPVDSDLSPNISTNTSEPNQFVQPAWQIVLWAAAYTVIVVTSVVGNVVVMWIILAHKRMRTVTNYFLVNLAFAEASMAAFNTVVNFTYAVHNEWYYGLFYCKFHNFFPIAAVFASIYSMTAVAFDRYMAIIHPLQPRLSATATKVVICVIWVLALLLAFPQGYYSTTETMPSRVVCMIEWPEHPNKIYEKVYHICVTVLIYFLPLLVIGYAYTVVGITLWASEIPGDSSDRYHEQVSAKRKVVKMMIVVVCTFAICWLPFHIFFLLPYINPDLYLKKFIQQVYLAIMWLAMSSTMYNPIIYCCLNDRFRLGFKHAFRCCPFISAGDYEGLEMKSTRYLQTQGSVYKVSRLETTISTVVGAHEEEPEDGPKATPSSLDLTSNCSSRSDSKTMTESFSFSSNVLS

Regarding `COc1cc(C(=O)N(C)CC(CCN(C)CCc2c[nH]c3ccc(F)cc23)c2ccc(Cl)c(Cl)c2)cc(OC)c1OC` (racemic) [Example 7c], the Ki (commonly a measure of affinity in units of concentration, obtained from inhibition or displacement) in test [1] amounted to 0.012 µM; in test [2], 0.01 µM. Further, in test [2], the inhibition (usually the percentage by which the read-out fell short of the control) at 1 µM was determined as 100%.
For the molecule `COc1cc(C(=O)N(C)CC(CCN(C)CCc2c[nH]c3ccccc23)c2ccc(Cl)c(Cl)c2)cc(OC)c1OC` (stereo not shown) [Example 2], the values for the inhibitory constant (Ki) in test [3], in test [1] and in test [2] were 0.448 µM, 0.025 µM and 0.033 µM, respectively. Besides, the inhibition at 1 µM in test [1] is 81%; in test [2] it was 87%.
For `C=CCN(CCc1c[nH]c2ccccc12)CCC(CN(C)C(=O)c1cc(OC)c(OC)c(OC)c1)c1ccc(Cl)c(Cl)c1` (stereo not shown) [Example 9b], the values for the inhibitory constant (Ki) in test [1] and in test [2] were 0.023 µM and 0.25 µM, respectively.
With `CN(CCc1c[nH]c2ccccc12)CCC(CN(C)C(=O)c1ccc2c(c1)OCO2)c1ccc(Cl)c(Cl)c1` (stereo not shown) [Example 12a], the inhibition at 1 µM in test [1] (setting [4]) amounted to 69%; in test [2] (setting [4]) it was 96%. Besides, the Ki was 0.165 µM in test [1] and 0.059 µM in test [2].
In the case of `COc1cc(OC)cc(C(=O)N2CCC(CCN(C)CCc3c[nH]c4ccccc34)(c3ccc(Cl)c(Cl)c3)C2)c1` (stereo not shown) [Example 14a], the Ki in test [1] worked out at 0.233 µM; in test [2], 0.03 µM.
